# In patent US7244431B2, “Allergy vaccines and their preparation” (priority 2000, dated 2007):
# Columns and labels:
# [1] = NMR analysis for residual secondary or tertiary structure; format: physicochemical; conditions: water solution
# Description: NMR was then used to check for residual secondary or tertiary structure. Compared to other spectroscopical approaches, this technique has the advantage that it provides positional information along the sequence.
# Peptides were examined for tertiary and/or secondary structure by one and two-dimensional nuclear magnetic resonance (NMR) on a UNITY VARIAN 600 MHz spectrometer equipped with z-shielded gradient coils using 0.8-1.0 mM samples in 90% H2O/10% D2O, 20 mM potassium phosphate buffer pH 7.0, at 20° C. […] Mixing times used were 70 ms and 150 or 200 ms for TOCSY and NOESY experiments, respectively.
# The absence of ring current shifted peaks in the region of the spectra below 0.5 ppm typical of well folded proteins is also a feature common to the spectra of the Bet v 1 peptides (data not shown). […] This peptide (P5), that in the Bet v 1 structure spans the whole C-terminal helix probably tends to form helical structures that aggregate in water solution.
# [2] = system: IgE antibodies in sera from birch pollen allergic patients; assay: ELISA detection of peptide- and rBet v 1-specific IgE antibodies; format: binding, human
# Procedure, shortened: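 Sera from 60 birch pollen allergic patients (rhinoconjunctivitis and/or asthma; skin prick and CAP RAST characterized) plus one non-atopic individual, diluted 1:3, incubated overnight at 4 °C on coated plates. Bound IgE detected with 1:1000 alkaline-phosphatase-coupled mouse anti-human IgE.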
# [3] = system: birch pollen allergic patients; assay: Skin prick testing of allergic patients; format: in vivo, human; conditions: 100 μg/ml
# Description: SPTs were performed on the individuals forearms as described ([…]. et al. (1997) J. Clin Invest. 99, 1673-168; Dreborg S: (1989) J. Am. Acad. DerMatol. 21, 820-821). […] In addition standardized skin prick solutions (birch pollen extract and histamine) (Allergopharma, Reinbek, Germany) were tested. Reactions were recorded 20 minutes after SPT by photography and by transferring the ballpoint pen-surrounded wheal area with a scotch tape to paper.
sequence,measurement,setting,value
"CKAEQVKASKEMGETLLRAVESYLLAHSDAYN [Peptide P5, Bet v 1-derived synthetic peptide, position aa 130-160, one cysteine added]",aggregation (NMR),[1],unusually broad resonances suggesting aggregation
same,IgE (OD),"[2]; serum of NHS, non-allergic control individual",— (Dashes indicate reactivities below the cut-off level (OD=0.050))
same,IgE (OD),[2]; serum of patient 1,— (Dashes indicate reactivities below the cut-off level (OD=0.050))
same,IgE (OD),[2]; serum of patient 2,— (Dashes indicate reactivities below the cut-off level (OD=0.050))
same,IgE (OD),[2]; serum of patient 3,— (Dashes indicate reactivities below the cut-off level (OD=0.050))
same,IgE (OD),[2]; serum of patient 4,— (Dashes indicate reactivities below the cut-off level (OD=0.050))
same,IgE (OD),[2]; serum of patient 5,— (Dashes indicate reactivities below the cut-off level (OD=0.050))
same,IgE (OD),[2]; serum of patient 6,— (Dashes indicate reactivities below the cut-off level (OD=0.050))
same,IgE (OD),[2]; serum of patient 7,— (Dashes indicate reactivities below the cut-off level (OD=0.050))
same,IgE (OD),[2]; serum of patient 8,— (Dashes indicate reactivities below the cut-off level (OD=0.050))
same,IgE (OD),[2]; serum of patient 9,— (Dashes indicate reactivities below the cut-off level (OD=0.050))
same,IgE (OD),[2]; serum of patient 10,— (Dashes indicate reactivities below the cut-off level (OD=0.050))
same,IgE (OD),[2]; serum of patient 11,— (Dashes indicate reactivities below the cut-off level (OD=0.050))
same,IgE (OD),[2]; serum of patient 12,— (Dashes indicate reactivities below the cut-off level (OD=0.050))
same,IgE (OD),[2]; serum of patient 13,— (Dashes indicate reactivities below the cut-off level (OD=0.050))
same,IgE (OD),[2]; serum of patient 14,— (Dashes indicate reactivities below the cut-off level (OD=0.050))
same,IgE (OD),[2]; serum of patient 15,— (Dashes indicate reactivities below the cut-off level (OD=0.050))
same,IgE (OD),[2]; serum of patient 16,— (Dashes indicate reactivities below the cut-off level (OD=0.050))
same,IgE (OD),[2]; serum of patient 17,— (Dashes indicate reactivities below the cut-off level (OD=0.050))
same,IgE (OD),[2]; serum of patient 18,— (Dashes indicate reactivities below the cut-off level (OD=0.050))
same,IgE (OD),[2]; serum of patient 19,— (Dashes indicate reactivities below the cut-off level (OD=0.050))
same,IgE (OD),[2]; serum of patient 20,— (Dashes indicate reactivities below the cut-off level (OD=0.050))
same,IgE (OD),[2]; serum of patient 21,— (Dashes indicate reactivities below the cut-off level (OD=0.050))
same,IgE (OD),[2]; serum of patient 22,— (Dashes indicate reactivities below the cut-off level (OD=0.050))
same,IgE (OD),[2]; serum of patient 23,— (Dashes indicate reactivities below the cut-off level (OD=0.050))
same,IgE (OD),[2]; serum of patient 24,— (Dashes indicate reactivities below the cut-off level (OD=0.050))
same,IgE (OD),[2]; serum of patient 25,— (Dashes indicate reactivities below the cut-off level (OD=0.050))
same,IgE (OD),[2]; serum of patient 26,— (Dashes indicate reactivities below the cut-off level (OD=0.050))
same,IgE (OD),[2]; serum of patient 27,— (Dashes indicate reactivities below the cut-off level (OD=0.050))
same,IgE (OD),[2]; serum of patient 28,— (Dashes indicate reactivities below the cut-off level (OD=0.050))
same,IgE (OD),[2]; serum of patient 29,— (Dashes indicate reactivities below the cut-off level (OD=0.050))
same,IgE (OD),[2]; serum of patient 30,— (Dashes indicate reactivities below the cut-off level (OD=0.050))
same,IgE (OD),[2]; serum of patient 31,— (Dashes indicate reactivities below the cut-off level (OD=0.050))
same,IgE (OD),[2]; serum of patient 32,— (Dashes indicate reactivities below the cut-off level (OD=0.050))
same,IgE (OD),[2]; serum of patient 33,— (Dashes indicate reactivities below the cut-off level (OD=0.050))
same,IgE (OD),[2]; serum of patient 34,— (Dashes indicate reactivities below the cut-off level (OD=0.050))
same,IgE (OD),[2]; serum of patient 35,— (Dashes indicate reactivities below the cut-off level (OD=0.050))
same,IgE (OD),[2]; serum of patient 36,— (Dashes indicate reactivities below the cut-off level (OD=0.050))
same,IgE (OD),[2]; serum of patient 37,— (Dashes indicate reactivities below the cut-off level (OD=0.050))
same,IgE (OD),[2]; serum of patient 38,— (Dashes indicate reactivities below the cut-off level (OD=0.050))
same,IgE (OD),[2]; serum of patient 39,— (Dashes indicate reactivities below the cut-off level (OD=0.050))
same,IgE (OD),[2]; serum of patient 40,— (Dashes indicate reactivities below the cut-off level (OD=0.050))
same,IgE (OD),[2]; serum of patient 41,— (Dashes indicate reactivities below the cut-off level (OD=0.050))
same,IgE (OD),[2]; serum of patient 42,— (Dashes indicate reactivities below the cut-off level (OD=0.050))
same,IgE (OD),[2]; serum of patient 43,— (Dashes indicate reactivities below the cut-off level (OD=0.050))
same,IgE (OD),[2]; serum of patient 44,— (Dashes indicate reactivities below the cut-off level (OD=0.050))
same,IgE (OD),[2]; serum of patient 45,— (Dashes indicate reactivities below the cut-off level (OD=0.050))
same,IgE (OD),[2]; serum of patient 46,— (Dashes indicate reactivities below the cut-off level (OD=0.050))
same,IgE (OD),[2]; serum of patient 47,— (Dashes indicate reactivities below the cut-off level (OD=0.050))
same,IgE (OD),[2]; serum of patient 48,— (Dashes indicate reactivities below the cut-off level (OD=0.050))
same,IgE (OD),[2]; serum of patient 49,— (Dashes indicate reactivities below the cut-off level (OD=0.050))
same,IgE (OD),[2]; serum of patient 50,— (Dashes indicate reactivities below the cut-off level (OD=0.050))
same,IgE (OD),[2]; serum of patient 51,— (Dashes indicate reactivities below the cut-off level (OD=0.050))
same,IgE (OD),[2]; serum of patient 52,— (Dashes indicate reactivities below the cut-off level (OD=0.050))
same,IgE (OD),[2]; serum of patient 53,— (Dashes indicate reactivities below the cut-off level (OD=0.050))
same,IgE (OD),[2]; serum of patient 54,— (Dashes indicate reactivities below the cut-off level (OD=0.050))
same,IgE (OD),[2]; serum of patient 55,— (Dashes indicate reactivities below the cut-off level (OD=0.050))
same,IgE (OD),[2]; serum of patient 56,— (Dashes indicate reactivities below the cut-off level (OD=0.050))
same,IgE (OD),[2]; serum of patient 57,— (Dashes indicate reactivities below the cut-off level (OD=0.050))
same,IgE (OD),[2]; serum of patient 58,— (Dashes indicate reactivities below the cut-off level (OD=0.050))
same,IgE (OD),[2]; serum of patient 59,— (Dashes indicate reactivities below the cut-off level (OD=0.050))
same,IgE (OD),[2]; serum of patient 60,— (Dashes indicate reactivities below the cut-off level (OD=0.050))
same,mean wheal diameter,[3]; individual 1,0 mm
same,mean wheal diameter,[3]; individual 2,0 mm
same,mean wheal diameter,[3]; individual 3,0 mm
same,mean wheal diameter,[3]; individual 4,0 mm
same,mean wheal diameter,[3]; individual 5,0 mm
same,mean wheal diameter,"[3]; individual 6 (allergic, without birch pollen allergy)",0 mm
